Test results reported in the supplement of paper PMC10307832.

How the values were obtained:
Experiment in all cases: relative viability (nuclei count vs DMSO), 5 days (fraction); higher = more cells survive
Selumetinib + Decitabine = compound: Cn1cnc2c(F)c(Nc3ccc(Br)cc3Cl)c(C(=O)NOCCO)cc21 [Selumetinib] + Nc1ncn([C@H]2C[C@H](O)[C@@H](CO)O2)c(=O)n1 [Decitabine] (partner 2 µM)
Summary of the method: (§1)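 Values are medians from duplicate plates. Each reflects relative viability, defined as the nuclei count of treated wells over that of vehicle wells. Lung cancer cell lines in 1536-well plates were pin-tool dosed one day after seeding with one drug alone or with a fixed anchor-drug dose plus five library-drug doses (not always all listed) in √10 steps, then fixed, stained and imaged at 4× after 5 days.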

Selumetinib + Lapatinib = compound: Cn1cnc2c(F)c(Nc3ccc(Br)cc3Cl)c(C(=O)NOCCO)cc21 [Selumetinib] + CS(=O)(=O)CCNCc1ccc(-c2ccc3ncnc(Nc4ccc(OCc5cccc(F)c5)c(Cl)c4)c3c2)o1 [Lapatinib] (partner 2 µM)
Summary of the method: as §1

Selumetinib + Trametinib = compound: Cn1cnc2c(F)c(Nc3ccc(Br)cc3Cl)c(C(=O)NOCCO)cc21 [Selumetinib] + CC(=O)Nc1cccc(-n2c(=O)n(C3CC3)c(=O)c3c(Nc4ccc(I)cc4F)n(C)c(=O)c(C)c32)c1 [Trametinib] (partner 0.02 µM)
Summary of the method: as §1

Venetoclax + Pemetrexed = compound: CC1(C)CCC(CN2CCN(c3ccc(C(=O)NS(=O)(=O)c4ccc(NCC5CCOCC5)c([N+](=O)[O-])c4)c(Oc4cnc5[nH]ccc5c4)c3)CC2)=C(c2ccc(Cl)cc2)C1 [Venetoclax] + Nc1nc2[nH]cc(CCc3ccc(C(=O)N[C@@H](CCC(=O)O)C(=O)O)cc3)c2c(=O)[nH]1 [Pemetrexed] (partner 0.2 µM)
Summary of the method: as §1

UMC-11
relative viability (Selumetinib + Decitabine; first compound 0.02 µM): 0.653 | relative viability (Selumetinib + Decitabine; first compound 0.06325 µM): 0.624 | relative viability (Selumetinib + Decitabine; first compound 0.2 µM): 0.619 | relative viability (Selumetinib + Decitabine; first compound 0.6325 µM): 0.643 | relative viability (Selumetinib + Lapatinib; first compound 0.02 µM): 0.954 | relative viability (Selumetinib + Lapatinib; first compound 0.06325 µM): 0.897 | relative viability (Selumetinib + Lapatinib; first compound 0.2 µM): 0.972 | relative viability (Selumetinib + Lapatinib; first compound 0.6325 µM): 1.02 | relative viability (Selumetinib + Trametinib; first compound 0.02 µM): 0.562 | relative viability (Selumetinib + Trametinib; first compound 0.06325 µM): 0.703 | relative viability (Selumetinib + Trametinib; first compound 0.2 µM): 0.879 | relative viability (Selumetinib + Trametinib; first compound 0.6325 µM): 0.812 | relative viability (Venetoclax + Pemetrexed; first compound 0.01 µM): 0.782 | relative viability (Venetoclax + Pemetrexed; first compound 0.03162 µM): 0.666 | relative viability (Venetoclax + Pemetrexed; first compound 0.1 µM): 0.731 | relative viability (Venetoclax + Pemetrexed; first compound 0.3162 µM): 0.752 | relative viability (Venetoclax + Pemetrexed; first compound 1 µM): 0.736
